≈ marks a conversion by molar mass, not a printed value. Where “and” joins values, the source holds several entries; their conditions need not be identical. Equal values may be shown once. Read-outs that look alike come from different tables or passages of the source.
What was measured:
[1] = tested on: M. tuberculosis H37Rv; experiment: microbe, parasite or virus in culture; format: cell-based, Mycobacterium tuberculosis; conditions: for MIC90 / IC90 / MIC: Mycobacterium tuberculosis, H37RV; for MIC90: read-out: MIC (MIC90); for IC90: read-out: TB-IC90_OD GEOM_MEAN
[2] = physchem
[3] = tested on: Vero cells; experiment: cells; conditions: Chlorocebus sabaeus, read-out: VERO IC50
Experimental: (§1) Compounds were solubilized in DMSO and assayed as a 10-point 3-fold serial dilution. Compounds were incubated with cells for 2 days at 37 °C, 5% CO2. CellTiter-Glo Reagent (Promega) was added and relative luminescent units (RLU) measured.

[4] = physchem; conditions: aqueous with cosolvent or surfactant or cyclodextrin, kinetic from dmso stock
[5] = for CL mouse MEAN / in vitro mouse Clint: microsomes
[6] = tested on: Vero cells; conditions: read-out: VERO IC50
Experimental: as §1

[7] = physchem; conditions: pH 2.4
[8] = physchem; remark: listed apart in the source
Experimental: Samples are stirred for 20 h and filtered through a 0.7 μm GF filter. The filtrate was analyzed by HPLC assay for concentration against DMSO standard curve.[40]

[9] = in vivo; conditions: female, C57 Black, mouse, po, 10 mg/kg
Experimental: (§2) Test compound was dosed as a bolus solution intravenously at 3 mg of free base/kilogram (dose volume 5 mL/kg; dose vehicle Saline or 10% DMSO; 40% PEG400; 50% saline) to female C57 Black (n = 3) or dosed orally by gavage as a solution at 10 mg of free base/kilogram (dose volume 10 mL/kg; dose vehicle 10% DMSO; 40% PEG400; 50% distilled water) to female C57 Black (n = 3/dose level). Blood samples were taken from each mouse tail vein at predetermined time points postdose, mixed with two volumes of distilled water, and stored frozen until UPLC/MS/MS analysis. Pharmacokinetic parameters were derived from the blood concentration time curve using PK Solutions software v 2.0 (Summit Research Services, USA).

[10] = tested on: Madin Darby Canine Kidney (MDCK); conditions: for P-glycoprotein (P-gp) efflux (in words) / permeability (in words): MDCK-MDR1; for P-gp Efflux B→ A/A → B: dog, MDCK
[11] = in vitro; conditions: dog, MDCK-MDR1
[12] = female, C57 Black, mouse, in vivo, iv, 3 mg/kg
Experimental: as §2

[13] = tested on: M. tuberculosis H37Rv; parameters: species or system Mycobacterium tuberculosis; conditions: in vivo

SMILES | MIC90 [1] | IC90 [1] | chromatographic logD [2] | IC50 [3] | solubility kinetic [4] | Cli mouse ([5]; female, CD1, mouse, pH 7.4) | CL mouse MEAN [5] | further results
c1ccc(CCOc2csc(N3CCOCC3)c2)cc1 [Compound 19, 4-[4-(2-Phenylethoxy)-2-thienyl]morpholine] | > 20 µM | > 20 µM | 1.96 | 68 µM | 174 µM (≈ 50.2 µg/mL) | 37 mL.min^–1.g^–1 | 37.17 mL/min/g | IC50 [6]: 61.7 µM
CC(=O)c1sc(N2CCOCC2)cc1OCCc1ccccc1 [Compound 20, 1-[5-Morpholino-3-(2-phenylethoxy)-2-thienyl]ethanone] | 0.42 µM (≈ 0.139 µg/mL) | 0.424 µM | 2.78 | 84 µM |  | 41 mL.min^–1.g^–1 | 41.42 mL/min/g | solubility [7]: 400 µg/mL (≈ 1210 µM); IC50 [6]: 82.2 µM; solubility ([8]; pH 2): 600 µg/mL (≈ 1810 µM); solubility ([8]; pH 7.4): 30 µg/mL (≈ 90.5 µM)
O=C(NCC(F)(F)F)c1sc(N2CCOCC2)cc1OCCc1ccccc1 [Compound 23, 5-Morpholino-3-phenethoxy-N-(2,2,2-trifluoroethyl)thiophene-2-carboxamide] | 3.4 µM (≈ 1.41 µg/mL) | 3.32 µM | 3.11 | > 100 µM | 67 µM (≈ 27.8 µg/mL) | 30 mL.min^–1.g^–1 | 30.19 mL/min/g | 
O=C(NC1CCC1)c1sc(N2CCOCC2)cc1OCCc1ccccc1 [Compound 24, N-Cyclobutyl-5-morpholino-3-phenethoxythiophene-2-carboxamide] | > 20 µM | > 20 µM | 3.21 | 24 µM | 175 µM (≈ 67.6 µg/mL) | 0.5 mL.min^–1.g^–1 | 0.5 mL/min/g | IC50 [6]: 24 µM
CON(C)C(=O)c1sc(N2CCOCC2)cc1OCCc1ccccc1 [Compound 25, N-Methoxy-N-methyl-5-morpholino-3-phenethoxythiophene-2-carboxamide] | 1.8 µM (≈ 0.678 µg/mL) | 1.7 µM |  |  |  | 0.5 mL.min^–1.g^–1 | 0.5 mL/min/g | MIC ([1]; read-out: H37Rv MIC): 0.64 µg/mL; AUC [9]: 86.7 ng·h/mL; in vitro mouse Clint [5]: <0.5 mL/min/g
CCOC(=O)NC(=O)c1sc(N2CCOCC2)cc1OCCc1ccccc1 [Compound 26, Ethyl N-[5-Morpholino-3-(2-phenylethoxy)thiophene-2-carbonyl]carbamate] | > 20 µM | > 20 µM | 2.73 | > 100 µM | 65.8 µM (≈ 26.6 µg/mL) | 1 mL.min^–1.g^–1 | 0.9584 mL/min/g | antitubercular whole cell activity (in words) [1]: inactive
NC(=O)c1sc(N2CCCCC2)cc1OCCc1ccccc1 [Compound 28, 3-(2-Phenylethoxy)-5-(1-piperidyl)thiophene-2-carboxamide] | 8.9 µM (≈ 2.94 µg/mL) | 11 µM | 3.04 | > 100 µM | 78.5 µM (≈ 25.9 µg/mL) | 42 mL.min^–1.g^–1 | 42.23 mL/min/g | 
NC(=O)c1sc(N2CCOCC2=O)cc1OCCc1ccccc1 [Compound 29, 5-(3-Oxomorpholino)-3-phenethoxythiophene-2-carboxamide] | 15 µM (≈ 5.2 µg/mL) | 10 µM |  | > 100 µM | 79 µM (≈ 27.4 µg/mL) | 7 mL.min^–1.g^–1 | 6.629 mL/min/g | drop in potency / activity [1]: > 10 fold
NC(=O)c1sc(-n2cnc3ccccc32)cc1OCCc1ccccc1 [Compound 33, 5-(Benzimidazol-1-yl)-3-(2-phenylethoxy)thiophene-2-carboxamide] | > 20 µM | > 20 µM | 2.39 | > 100 µM | 27.5 µM (≈ 9.99 µg/mL) | 28 mL.min^–1.g^–1 | 28.23 mL/min/g | antitubercular whole cell activity (in words) [1]: inactive
NC(=O)c1sc(-n2nccn2)cc1OCCc1ccccc1 [Compound 34, 3-(2-Phenylethoxy)-5-(triazol-2-yl)thiophene-2-carboxamide] | 2 µM (≈ 0.629 µg/mL) | 2.05 µM | 2.41 | > 100 µM | 78.5 µM (≈ 24.7 µg/mL) | 30 mL.min^–1.g^–1 | 30.46 mL/min/g | 
NC(=O)c1sc(-c2ccncc2)cc1OCCc1ccccc1 [Compound 35, 3-(2-Phenylethoxy)-5-(4-pyridyl)thiophene-2-carboxamide] | 5.3 µM (≈ 1.72 µg/mL) | 5.08 µM | 1.9 | 5.9 µM | 219 µM (≈ 71 µg/mL) | 41 mL.min^–1.g^–1 | 40.84 mL/min/g | MIC ([1]; read-out: MIC WT): 5.8 µM; IC50 [6]: 5.62 µM
NC(=O)c1sc(N2CCOCC2)cc1OCCc1cccc(F)c1 [Compound 39, 3-[2-(3-Fluorophenyl)ethoxy]-5-morpholinothiophene-2-carboxamide] | 0.43 µM (≈ 0.151 µg/mL) | 0.469 µM | 2.05 | > 100 µM | 219 µM (≈ 76.7 µg/mL) | 18 mL.min^–1.g^–1 | 17.63 mL/min/g | MIC ([1]; read-out: MIC WT): 0.53 µM
CC1(COc2cc(N3CCOCC3)sc2C(N)=O)COC1 [Compound 46, 3-((3-Methyloxetan-3-yl)methoxy)-5-morpholinothiophene-2-carboxamide] | > 20 µM |  | 0.707 | > 100 µM |  | 2.1 mL.min^–1.g^–1 | 2.051 mL/min/g | antitubercular whole cell activity (in words) [1]: no measurable MIC activity; MIC ([1]; read-out: H37Rv MIC): > 6.2 µg/mL; P-glycoprotein (P-gp) efflux (in words) [10]: no likely P-glycoprotein (P-gp) efflux issues; permeability (in words) [10]: good permeability; P-gp Efflux B→ A/A → B [10]: 2; Papp A→B [11]: 19 ×10⁻⁶ cm/s; Papp B→A [11]: 35 ×10⁻⁶ cm/s; bioavailability [9]: 38%; scaled Clpre ([5]; female, CD1, mouse, pH 7.4): 56 mL/min/kg; in vitro mouse Clint [5]: 2.1 mL/min/g; CLB [12]: 31 mL/min/kg; T1/2 [12]: 42 min
NC(=O)c1cc(N2CCOCC2)ccc1OCCc1cccc(F)c1 [Compound 56, 2-[2-(3-Fluorophenyl)ethoxy]-5-morpholino-benzamide] | 2.8 µM (≈ 0.964 µg/mL) |  |  | > 100 µM |  | 6.4 mL.min^–1.g^–1 | 6.406 mL/min/g | P-glycoprotein (P-gp) efflux (in words) [10]: no likely P-glycoprotein (P-gp) efflux issues; permeability (in words) [10]: good permeability; P-gp Efflux B→ A/A → B [10]: 0.7; Papp A→B [11]: 51 ×10⁻⁶ cm/s; Papp B→A [11]: 37 ×10⁻⁶ cm/s
COc1c(N2C[C@@H]3CCCN[C@@H]3C2)c(F)cc2c(=O)c(C(=O)O)cn(C3CC3)c12 [Moxifloxacin] |  |  |  |  |  |  |  | log CFUs per mouse (lungs), individual mice [13]: 3.8 log CFU (2×) and 4.4 log CFU and 4.0 log CFU and 3.9 log CFU; log CFUs per mouse (lungs), mean [13]: 4.0 log CFU; reduction of CFU lung number with respect to untreated mice [13]: 2.8 logs
C=C[C@H]1C[N@@]2CC[C@H]1C[C@@H]2[C@@H](O)c1ccnc2ccc(OC)cc12 [Quinidine, reference compound] |  |  |  |  |  |  |  | Papp B→A [11]: 89 ×10⁻⁶ cm/s
